Data taken from PubChem BioAssay AID222 (DTP/NCI, 2004).
“And” between values parts separate entries of the source, which are not always exact repeats. Equal values may be shown once. Toxic doses and inconclusive results are not listed. The calls were made as follows: active = survival T/C of 150% or more; inactive = T/C below 125% in these data.

System: C57BL/6 mice, intracerebral ependymoblastoma, median survival T/C
Test: NCI In Vivo Anticancer Drug Screen. Data for tumor model Ependymoblastoma (intracerebral) in C57BL/6 mice
Conditions: endpoint: median survival time, higher = longer survival
Method: The antitumor activity of compounds was measured in mice bearing transplantable tumors. Survival or tumor size were measured and the results are expressed as the measurement made in the treated group (T) divided by the measurement made in the vehicle treated control group (C). The tumor model used in this assay is Ependymoblastoma (intracerebral) in C57BL/6 mice

Measured: T/C

CN(C)CCCNc1c2ccccc2nc2cccc([N+](=O)[O-])c12
inactive: dose: 0.01 mg/kg/injection, schedule: Q## X006 (ip), vehicle: saline 99 % of control | dose: 0.03 mg/kg/injection, schedule: Q01DX001 (ip), vehicle: saline 101 % of control | dose: 0.03 mg/kg/injection, schedule: Q## X006 (ip), vehicle: saline 94 % of control | dose: 0.06 mg/kg/injection, schedule: Q01DX001 (ip), vehicle: saline 92 % of control | dose: 0.06 mg/kg/injection, schedule: Q01DX005 (ip), vehicle: saline 99 % of control and 100 % of control and 102 % of control | dose: 0.06 mg/kg/injection, schedule: Q#A X002 (ip), vehicle: saline 101 % of control and 117 % of control | dose: 0.12 mg/kg/injection, schedule: Q01DX001 (ip), vehicle: saline 92 % of control | dose: 0.12 mg/kg/injection, schedule: Q01DX005 (ip), vehicle: saline 98 % of control | dose: 0.12 mg/kg/injection, schedule: Q#A X002 (ip), vehicle: saline 106 % of control and 111 % of control | dose: 0.13 mg/kg/injection, schedule: Q01DX005 (ip), vehicle: saline 94 % of control | dose: 0.25 mg/kg/injection, schedule: Q01DX001 (ip), vehicle: saline 91 % of control | dose: 0.25 mg/kg/injection, schedule: Q#A X002 (ip), vehicle: saline 88 % of control and 101 % of control | dose: 0.5 mg/kg/injection, schedule: Q01DX001 (oral), vehicle: saline 95 % of control | dose: 0.5 mg/kg/injection, schedule: Q#A X002 (ip), vehicle: saline 94 % of control and 100 % of control | dose: 1.0 mg/kg/injection, schedule: Q01DX001 (oral), vehicle: suspension in saline 100 % of control | dose: 1.0 mg/kg/injection, schedule: Q#A X002 (ip), vehicle: saline 87 % of control and 91 % of control | dose: 2.0 mg/kg/injection, schedule: Q01DX001 (ip), vehicle: saline 89 % of control | dose: 2.0 mg/kg/injection, schedule: Q01DX001 (oral), vehicle: saline 104 % of control | dose: 2.0 mg/kg/injection, schedule: Q01DX001 (oral), vehicle: suspension in saline 100 % of control | dose: 2.0 mg/kg/injection, schedule: Q#A X002 (ip), vehicle: saline 87 % of control | dose: 4.0 mg/kg/injection, schedule: Q01DX001 (ip), vehicle: saline 87 % of control | dose: 4.0 mg/kg/injection, schedule: Q01DX001 (oral), vehicle: suspension in saline 91 % of control | dose: 8.0 mg/kg/injection, schedule: Q01DX001 (oral), vehicle: saline 96 % of control | dose: 8.0 mg/kg/injection, schedule: Q01DX001 (oral), vehicle: suspension in saline 96 % of control | dose: 16.0 mg/kg/injection, schedule: Q01DX001 (oral), vehicle: suspension in saline 91 % of control | dose: 3.9 micrograms/kg/injection, schedule: Q## X006 (ip), vehicle: saline 97 % of control | dose: 7.8 micrograms/kg/injection, schedule: Q01DX005 (ip), vehicle: saline 103 % of control | dose: 7.8 micrograms/kg/injection, schedule: Q## X006 (ip), vehicle: saline 97 % of control | dose: 15.6 micrograms/kg/injection, schedule: Q01DX005 (ip), vehicle: saline 110 % of control | dose: 15.6 micrograms/kg/injection, schedule: Q## X006 (ip), vehicle: saline 92 % of control | dose: 16.0 micrograms/kg/injection, schedule: Q01DX005 (ip), vehicle: saline 102 % of control and 113 % of control | dose: 31.2 micrograms/kg/injection, schedule: Q## X006 (ip), vehicle: saline 95 % of control | dose: 32.0 micrograms/kg/injection, schedule: Q01DX005 (ip), vehicle: saline 104 % of control and 111 % of control | dose: 62.5 micrograms/kg/injection, schedule: Q01DX005 (ip), vehicle: saline 107 % of control and 109 % of control | dose: 62.5 micrograms/kg/injection, schedule: Q## X006 (ip), vehicle: saline 97 % of control | dose: 63.0 micrograms/kg/injection, schedule: Q01DX005 (ip), vehicle: saline 103 % of control and 105 % of control

CN(N=O)C(=O)N[C@@H](C=O)[C@@H](O)[C@H](O)[C@H](O)CO
inactive: dose: 14.5 mg/kg/injection, schedule: Q## X006 (ip), vehicle: saline 109 % of control | dose: 16.0 mg/kg/injection, schedule: Q01DX001 (ip), vehicle: saline 98 % of control and 109 % of control | dose: 16.0 mg/kg/injection, schedule: Q01DX005 (ip), vehicle: other 113 % of control | dose: 16.0 mg/kg/injection, schedule: Q01DX005 (ip), vehicle: saline 117 % of control | dose: 16.0 mg/kg/injection, schedule: Q#A X002 (ip), vehicle: saline 100 % of control and 108 % of control | dose: 29.0 mg/kg/injection, schedule: Q## X006 (ip), vehicle: saline 111 % of control | dose: 32.0 mg/kg/injection, schedule: Q01DX001 (ip), vehicle: other 105 % of control | dose: 32.0 mg/kg/injection, schedule: Q01DX001 (oral), vehicle: other 116 % of control | dose: 32.0 mg/kg/injection, schedule: Q01DX005 (ip), vehicle: other 120 % of control | dose: 32.0 mg/kg/injection, schedule: Q01DX005 (ip), vehicle: saline 114 % of control | dose: 32.0 mg/kg/injection, schedule: Q01DX005 (oral), vehicle: other 95 % of control | dose: 32.0 mg/kg/injection, schedule: Q01DX005 (oral), vehicle: saline 102 % of control | dose: 32.0 mg/kg/injection, schedule: Q## X006 (ip), vehicle: other 112 % of control | dose: 32.0 mg/kg/injection, schedule: Q#A X002 (ip), vehicle: saline 104 % of control and 114 % of control | dose: 57.9 mg/kg/injection, schedule: Q## X006 (ip), vehicle: saline 114 % of control | dose: 64.0 mg/kg/injection, schedule: Q01DX001 (oral), vehicle: other 102 % of control | dose: 64.0 mg/kg/injection, schedule: Q01DX005 (ip), vehicle: other 110 % of control | dose: 64.0 mg/kg/injection, schedule: Q01DX005 (oral), vehicle: other 103 % of control | dose: 64.0 mg/kg/injection, schedule: Q01DX005 (oral), vehicle: saline 101 % of control | dose: 64.0 mg/kg/injection, schedule: Q## X006 (ip), vehicle: other 116 % of control | dose: 64.0 mg/kg/injection, schedule: Q#A X002 (ip), vehicle: saline 89 % of control and 118 % of control | dose: 128.0 mg/kg/injection, schedule: Q01DX001 (oral), vehicle: other 101 % of control | dose: 128.0 mg/kg/injection, schedule: Q01DX005 (oral), vehicle: saline 98 % of control | dose: 128.0 mg/kg/injection, schedule: Q## X006 (ip), vehicle: other 121 % of control | dose: 128.0 mg/kg/injection, schedule: Q#A X002 (ip), vehicle: saline 89 % of control and 113 % of control | dose: 231.7 mg/kg/injection, schedule: Q## X006 (ip), vehicle: saline 119 % of control | dose: 256.0 mg/kg/injection, schedule: Q01DX001 (oral), vehicle: other 113 % of control | dose: 256.0 mg/kg/injection, schedule: Q01DX005 (oral), vehicle: other 93 % of control | dose: 256.0 mg/kg/injection, schedule: Q01DX005 (oral), vehicle: saline 103 % of control | dose: 256.0 mg/kg/injection, schedule: Q#A X002 (ip), vehicle: saline 92 % of control | dose: 512.0 mg/kg/injection, schedule: Q01DX001 (oral), vehicle: other 113 % of control | dose: 512.0 mg/kg/injection, schedule: Q01DX005 (oral), vehicle: saline 113 % of control | dose: 1024.0 mg/kg/injection, schedule: Q01DX001 (oral), vehicle: other 117 % of control

NC(=S)N/N=C/c1ccc(O)cn1
inactive: dose: 12.0 mg/kg/injection, schedule: Q01DX005 (ip), vehicle: saline 108 % of control | dose: 24.0 mg/kg/injection, schedule: Q01DX005 (ip), vehicle: saline 94 % of control | dose: 48.0 mg/kg/injection, schedule: Q01DX005 (ip), vehicle: saline 101 % of control | dose: 96.0 mg/kg/injection, schedule: Q01DX005 (ip), vehicle: saline 104 % of control

Nc1nc(=S)c2ncn(C3OC(CO)CC3O)c2[nH]1 (stereo not given)
inactive: dose: 5.0 mg/kg/injection, schedule: Q01DX005 (ip), vehicle: saline 99 % of control | dose: 10.0 mg/kg/injection, schedule: Q01DX005 (ip), vehicle: saline 99 % of control
